In patent US10590056B2, “ERR modulators and uses thereof” (CITY OF HOPE, priority 2017, dated 2020):
pIC50: −log10 of the molar value. “Also recorded” adds a separate entry of the source.

Experiments:
human ERRα = molecular target: T1, human ERRα (Homo sapiens, UniProt P11474); assay: GAL4 DBD-ERRα LBD cotransfection luciferase reporter assay in CV-1 cells; assay type: cell-based; details: for pIC50: CV-1 cells co-transfected with reporter and expression vectors, human ERRα LBD; for activity on ERRα, in words: cell-based screening; for effect on ERRα transcriptional activity: up to 3 μM
T1 construct: expressed in transfected cells; host or cells: CV-1 cells, cytomegalovirus-driven expression vectors
T1 sequence (P11474 193-421 limits assumed): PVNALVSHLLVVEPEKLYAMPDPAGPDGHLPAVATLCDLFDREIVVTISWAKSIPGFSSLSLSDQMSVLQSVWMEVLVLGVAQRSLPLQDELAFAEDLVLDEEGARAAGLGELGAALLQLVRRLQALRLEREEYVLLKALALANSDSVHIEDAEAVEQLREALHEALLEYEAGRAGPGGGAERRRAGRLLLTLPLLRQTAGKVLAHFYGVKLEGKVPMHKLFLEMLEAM
Procedure: (§1) To assess the functional transcriptional activity of these compounds, cell-based assays using chimeric receptor Gal4 DNA-binding domain (DBD)-NR ligand binding domain cotransfection assay (LBDs of ERRα, ERRγ, and ERRβ) were performed. As an initial screen to determine the ERRγ and ERRβ inhibitory activity and selectivity, all compounds were evaluated for in vitro potency and selectivity by transfection testing, using CV-1 cells transfected with human and mouse ERRs. MH100×4 is a luciferase reporter with four copies of a GAL4 UASG response element, where GAL-I refers to the ligand-binding domain of the indicated receptor fused to the C-terminus of the GAL4 DNA-binding domain. Assays were performed using a Biomek automated workstation in which the genes for the nuclear receptor, as well as a plasmid containing a response element upstream of a luciferase cDNA, are transfected into CV-1 cells. Compounds were evaluated for their ability to inhibit human ERRs at 0.03, 0.1, 0.5, 1, 2.5, 3, and 10 μM test concentrations. […] Z-4-OHT used as a known ERRγ and ERRβ inverse agonist to compare the constitutive activity of unliganded ERRγ and ERRβ.
(§2) Cell culture. CV-1 cells were grown in Dulbecco's modified Eagle's medium supplemented with 10% resin charcoalstripped fetal bovine serum, 50 U/ml penicillin G, and 50 μg/ml streptomycin sulfate (DMEM-FBS) at 37° C. in 5% CO2. One day prior to transfection, cells were plated to 50%-80% confluence using phenol red free DMEM-FBS. The adenoviral construct, Ad-GFP and Ad-ERRα have been described.^55 Propagation of recombinant adenovirus was performed in 293 cells as described.^11
(§3) Cell based transactivation assays were performed in CV-1 cells as described.^49 ERR activity was assayed with a GAL4 reporter construct and fusion proteins containing the ligand binding domains of human ERRα, human ERRβ and mouse ERRγ linked to the DNA binding domain of yeast GAL4. Human ERα and ERβ were examined as full-length proteins using an estrogen receptor responsive reporter construct. Reporter constructs (300 ng/10^5 cells) and cytomegalovirus-driven expression vectors (20-50 ng/10^5 cells) were added as indicated along with CMX-β-gal (500 ng/10^5 cells) as an internal control. Cells were transiently transfected by Lipofectamine as described.^56 Cells were incubated with DNA complexed liposomes for 2 hours and subsequently treated for approximately 45 hr with phenol red free DMEM FBS containing the indicated compounds. After exposure to ligand, the cells were harvested and assayed for luciferase and β-galactosidase activity. […] Fold activation is reported.

mouse ERRγ = molecular target: T2, mouse ERRγ (Mus musculus, UniProt P62509); assay: GAL4 DBD-ERRγ LBD cotransfection luciferase reporter assay in CV-1 cells; assay type: cell-based; details: for pIC50: CV-1 cells co-transfected with reporter and expression vectors, mouse ERRγ LBD; for activity on ERRγ, in words: cell-based cotransfection assay, 1g, 1h: at the higher dose; for effect on ERRγ transcriptional activity: up to 3 μM
T2 construct: expressed in transfected cells; host or cells: CV-1 cells, cytomegalovirus-driven expression vectors
T2 sequence (P62509 233-457 limits assumed): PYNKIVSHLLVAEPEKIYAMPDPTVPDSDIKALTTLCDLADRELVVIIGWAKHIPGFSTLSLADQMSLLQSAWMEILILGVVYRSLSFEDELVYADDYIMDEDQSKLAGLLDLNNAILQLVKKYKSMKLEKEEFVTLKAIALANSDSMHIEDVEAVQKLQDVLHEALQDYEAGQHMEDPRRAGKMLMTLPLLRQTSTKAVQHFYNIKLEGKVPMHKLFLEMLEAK
Procedure: as §1, §2, §3

human ERRβ = molecular target: T3, human ERRβ (Homo sapiens, UniProt O95718); assay: GAL4 DBD-ERRβ LBD cotransfection luciferase reporter assay in CV-1 cells; assay type: cell-based; details: for identified as (inverse agonist class / selectivity): ERRα, ERRβ, ERRγ transactivation panel; for activity on ERRβ, in words: cell-based cotransfection assay
T3 construct: expressed in transfected cells; host or cells: CV-1 cells, cytomegalovirus-driven expression vectors
T3 sequence (O95718 208-432 limits assumed): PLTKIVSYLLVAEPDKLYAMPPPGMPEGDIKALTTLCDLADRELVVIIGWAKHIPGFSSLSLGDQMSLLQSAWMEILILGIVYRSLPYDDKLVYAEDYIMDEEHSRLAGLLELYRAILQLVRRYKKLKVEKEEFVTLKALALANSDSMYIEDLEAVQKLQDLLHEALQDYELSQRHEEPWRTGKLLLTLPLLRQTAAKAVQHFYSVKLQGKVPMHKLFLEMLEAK
Procedure: as §1, §2, §3

Human ERα = molecular target: T4, Human ERα (Homo sapiens, UniProt P03372); assay: Full-length ERα, estrogen receptor responsive reporter assay in CV-1 cells; assay type: cell-based; details: up to 3 μM
T4 construct: Human ERα and ERβ were examined as full-length proteins using an estrogen receptor responsive reporter construct; expressed in transfected cells; host or cells: CV-1 cells, cytomegalovirus-driven expression vectors
T4 sequence (P03372 1-595): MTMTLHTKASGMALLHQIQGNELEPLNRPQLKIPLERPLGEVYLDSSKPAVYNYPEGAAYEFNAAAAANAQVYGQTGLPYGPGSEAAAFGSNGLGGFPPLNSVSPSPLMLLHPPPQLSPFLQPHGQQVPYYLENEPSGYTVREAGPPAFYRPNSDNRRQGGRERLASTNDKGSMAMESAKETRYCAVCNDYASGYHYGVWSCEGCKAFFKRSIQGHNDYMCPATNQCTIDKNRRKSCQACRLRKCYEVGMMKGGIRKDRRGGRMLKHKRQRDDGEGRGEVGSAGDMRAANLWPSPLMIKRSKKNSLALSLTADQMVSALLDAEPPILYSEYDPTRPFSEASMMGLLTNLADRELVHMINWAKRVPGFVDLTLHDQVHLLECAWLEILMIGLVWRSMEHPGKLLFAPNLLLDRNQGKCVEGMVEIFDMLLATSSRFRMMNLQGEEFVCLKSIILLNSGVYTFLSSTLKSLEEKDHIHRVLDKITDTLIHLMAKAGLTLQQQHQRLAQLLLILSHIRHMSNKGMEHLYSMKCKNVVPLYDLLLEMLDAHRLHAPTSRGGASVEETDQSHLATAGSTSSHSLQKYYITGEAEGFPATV
Procedure: (§4) Cell based transactivation assays were performed in CV-1 cells as described.^49 ERR activity was assayed with a GAL4 reporter construct and fusion proteins containing the ligand binding domains of human ERRα, human ERRβ and mouse ERRγ linked to the DNA binding domain of yeast GAL4. Human ERα and ERβ were examined as full-length proteins using an estrogen receptor responsive reporter construct. Reporter constructs (300 ng/10^5 cells) and cytomegalovirus-driven expression vectors (20-50 ng/10^5 cells) were added as indicated along with CMX-β-gal (500 ng/10^5 cells) as an internal control. Cells were transiently transfected by Lipofectamine as described.^56 Cells were incubated with DNA complexed liposomes for 2 hours and subsequently treated for approximately 45 hr with phenol red free DMEM FBS containing the indicated compounds. After exposure to ligand, the cells were harvested and assayed for luciferase and β-galactosidase activity. All points were assayed in triplicate and varied by less than 15%. Each experiment was repeated three or more times with similar results. Fold activation is reported.

Human ERβ = molecular target: T5, Human ERβ (Homo sapiens, UniProt Q92731); assay: Full-length ERβ, estrogen receptor responsive reporter assay in CV-1 cells; assay type: cell-based; details: up to 3 μM
T5 construct: Human ERα and ERβ were examined as full-length proteins using an estrogen receptor responsive reporter construct; expressed in transfected cells; host or cells: CV-1 cells, cytomegalovirus-driven expression vectors
T5 sequence (Q92731 whole entry): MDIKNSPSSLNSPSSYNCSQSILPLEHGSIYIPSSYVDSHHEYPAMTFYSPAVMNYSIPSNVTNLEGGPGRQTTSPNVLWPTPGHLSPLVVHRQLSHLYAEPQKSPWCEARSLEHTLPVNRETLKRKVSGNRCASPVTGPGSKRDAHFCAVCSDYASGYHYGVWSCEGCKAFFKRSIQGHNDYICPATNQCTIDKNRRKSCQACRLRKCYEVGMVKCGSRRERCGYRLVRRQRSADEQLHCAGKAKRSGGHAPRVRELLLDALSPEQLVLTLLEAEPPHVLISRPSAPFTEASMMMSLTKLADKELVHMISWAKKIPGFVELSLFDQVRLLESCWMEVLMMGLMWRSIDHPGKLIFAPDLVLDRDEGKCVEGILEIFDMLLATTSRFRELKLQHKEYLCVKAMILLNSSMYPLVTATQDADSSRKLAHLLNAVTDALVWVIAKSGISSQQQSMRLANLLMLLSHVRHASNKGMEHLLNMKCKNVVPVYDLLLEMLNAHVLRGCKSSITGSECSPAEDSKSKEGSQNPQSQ
Procedure: as §4

ER = details: % of the affinity of the Z isomer of 4-OHT; cited from earlier work
[1] = CV-1 cells co-transfected with reporter and expression vectors, human ERRβ LBD

SMILES | pIC50 (human ERRα) | pIC50 (mouse ERRγ) | activity on ERRγ, in words (mouse ERRγ) | pIC50 (human ERRβ; [1]) | identified as (inverse agonist class / selectivity) (human ERRβ) | also measured
CCCC(=C(c1ccc(O)cc1)c1ccc(O)cc1)c1ccccc1 [Compound 1b, 1,1-Bis (4-hydroxyphenyl)-2-phenylpent-1-ene] | – | – | – | – | – | melting point: 192.7 °C
COC(=O)CCC(=C(c1ccc(O)cc1)c1ccc(O)cc1)c1ccccc1 [Compound 1g, 5,5-Bis (4-hydroxyphenyl)-4-phenyl-pent-4-enoic acid methyl ester] | < 5.00 | 5.19 | not active | 6.22 | selective inverse agonists for the ERRβ | activity on ERRα, in words (human ERRα): not active
COC(=O)C(C)CC(=C(c1ccc(O)cc1)c1ccc(O)cc1)c1ccccc1 (stereo not shown) [Compound 1h, 5,5-Bis (4-hydroxyphenyl)-2-methyl-4-phenyl-pent-4-enoic acid methyl ester] | < 5.00 | 5.26 | not active | 6.52 | selective inverse agonists for the ERRβ | activity on ERRα, in words (human ERRα): not active
CC(C)/C(=C(\c1ccc(O)cc1)c1ccc(OCCN(C)C)cc1)c1ccccc1 [Compound 3a, (Z)-4-[1-(4-Dimethylaminoethoxy-phenyl)-3-methyl-2-phenyl-but-1-enyl]-phenol] | < 5.00 | 6.54 | – | 6.68 | ERRβ and ERRγ inverse agonists | fold greater potency than Z-4-OHT on ERRγ (mouse ERRγ; compared to Z-4-OHT): 3 fold; fold greater potency than Z-4-OHT on ERRβ (human ERRβ; compared to Z-4-OHT): 3 fold
COC(=O)CC/C(=C(\c1ccc(O)cc1)c1ccc(OCCN(C)C)cc1)c1ccccc1 [Compound 3g, (Z)-5-[4-(2-Dimethylamino-ethoxy)-phenyl]-5-(4-hydroxyphenyl)-4-phenyl-pent-4-enoic acid methyl ester] | < 5.00 | 5.46 | – | 6.46 | – | effect on ERRα transcriptional activity (human ERRα): no effect; effect on ERα transcriptional activity (Human ERα): no effect; effect on ERRγ transcriptional activity (mouse ERRγ): no effect; effect on ERβ transcriptional activity (Human ERβ): no effect
COC(=O)C(C)C/C(=C(\c1ccc(O)cc1)c1ccc(OCCN(C)C)cc1)c1ccccc1 (stereo not shown) [Compound 3h, (Z)-5-[4-(2-Dimethylamino-ethoxy)-phenyl]-5-(4-hydroxyphenyl)-2-methyl-4-phenyl-pent-4-enoic acid methyl ester] | < 5.00 | 5.56 | – | – | selective inverse agonist for the ERRβ; also recorded: ERRβ inverse agonists | effect on ERRα transcriptional activity (human ERRα): no effect; effect on ERα transcriptional activity (Human ERα): no effect; effect on ERRγ transcriptional activity (mouse ERRγ): no effect; pIC50 (human ERRβ; cell-based transactivation in CV-1 cells): 7.30; effect on ERβ transcriptional activity (Human ERβ): no effect
CC(CO)C/C(=C(\c1ccc(O)cc1)c1ccc(OCCN(C)C)cc1)c1ccccc1 (stereo not shown) [Compound 3n, (Z)-4-{1-[4-(2-Dimethylamino-ethoxy)-phenyl]-5-hydroxy-4-methyl-2-phenyl-pent-1-enyl}-phenol] | < 5.00 | 5.60 | – | 5.65 | ERRβ and ERRγ inverse agonists | –
CC/C(=C(/c1ccc(O)cc1)c1ccc(OCCN(C)C)cc1)c1ccccc1 [Compound E-4-OHT, reference compound] | – | – | much less active | – | – | affinity for the ER relative to the Z isomer (ER): about 5%; activity on ERRβ, in words (human ERRβ): much less active
CC/C(=C(\c1ccc(O)cc1)c1ccc(OCCN(C)C)cc1)c1ccccc1 [Compound Z-4-OHT, reference compound] | < 5.00 | 6.22 | has the required activity; also recorded: more potent than E-4-OHT | 6.19 | – | activity on ERRβ, in words (human ERRβ): has the required activity; also recorded: more potent than E-4-OHT
